The values below come from article PMC5221612 (Journal of the American Chemical Society, 2016).

Read-outs that look alike come from different tables or passages of the source.

For experiment [1], the target named is GT-3 HCV NS3/4A protease (Hepatitis C virus genotype 3a, UniProt Q81258). The experiment is described as follows: biochemical.
Experiment [2] concerns GT-3 HCV NS3/4A protease. In words: biochemical. Details: species or system Hepatitis C virus genotype 3a. The settings on record: for fold change (FC) in Ki, GT-3 relative to GT-1: GT-3 Ki / GT-1 Ki; for loss in affinity in GT-3 relative to GT-1: GT-3 vs GT-1.
The subject of experiment [3] is GT-1a NS3/4A protease with D168Q. It counts as biochemical, Hepatitis C virus genotype 1a. The settings on record: GT-1a D168Q vs GT-1 WT protease.
A further experiment concerns the target GT-1 HCV NS3/4A protease. The conditions noted are these: read-out: Ki against GT-1 NS3/4A protease; GT-1a wild type; cited from earlier work.
Experiment [4] relates to GT-1a NS3/4A protease with R123T/I132L/D168Q (1a3a). In words: Enzyme inhibition assay, chimeric 1a3a NS3/4A protease. It counts as biochemical, Hepatitis C virus. The conditions noted are these: 1a3a chimera vs GT-1 WT.
For experiment [5], the system named is HCV GT-3 subgenomic replicon. The settings on record: viral subgenomic replicon models; range over the named PIs; cited from earlier work.
Experiment [6] deals with GT-1a NS3/4A protease with D168Q (Hepatitis C virus genotype 1a, UniProt P27958, D1194Q). The format is biochemical. The settings on record: GT-1a D168Q.

With `CCC[C@H](NC(=O)[C@@H]1[C@H]2CCC[C@H]2CN1C(=O)[C@@H](NC(=O)[C@@H](NC(=O)c1cnccn1)C1CCCCC1)C(C)(C)C)C(=O)C(=O)NC1CC1` [telaprevir], the Ki at GT-3 HCV NS3/4A protease [1] is 266 nM; on GT-1 HCV NS3/4A protease it was 33 nM. Also, the “fold change (FC) in Ki, GT-3 relative to GT-1” value in the experiment with GT-3 HCV NS3/4A protease [2] was 8 fold. In addition, the “fold change (loss) in potency, D168Q relative to GT-1 WT” value in experiment [3] turned out to be 1.2 fold.
On to `CC(C)(C)NC(=O)N[C@H](C(=O)N1C[C@H]2[C@@H]([C@H]1C(=O)NC(CC1CCC1)C(=O)C(N)=O)C2(C)C)C(C)(C)C` (stereo partly drawn) [boceprevir], for which the results for the Ki on GT-3 HCV NS3/4A protease [1] and on GT-1 HCV NS3/4A protease were 71 nM and 33 nM, respectively. In the experiment on GT-3 HCV NS3/4A protease [2], the “fold change (FC) in Ki, GT-3 relative to GT-1” value is recorded as 2.2 fold. In addition, the “fold change (loss) in potency, D168Q relative to GT-1 WT” value in experiment [3] was found to be 0.7 fold.
For `C=C[C@@H]1C[C@]1(NC(=O)[C@@H]1C[C@@H]2CN1C(=O)[C@H](C(C)(C)C)NC(=O)O[C@@H]1C[C@H]1CCCCCc1nc3ccc(OC)cc3nc1O2)C(=O)NS(=O)(=O)C1CC1.O` [grazoprevir], the “loss in affinity in GT-3 relative to GT-1” value in the experiment with GT-3 HCV NS3/4A protease [2] is reported as 2–3 orders of magnitude. Moreover, the “loss in potency, R123T/I132L/D168Q (1a3a) relative to GT-1 WT” value (“loss … (1a3a) relative to GT-1 WT” for short) in experiment [4] was 2–3 orders of magnitude. For the same compound, the Ki on GT-1 HCV NS3/4A protease is 0.1 nM. The “loss in activity against GT-3 compared to GT-1” value (“loss … compared to GT-1” below) in experiment [5] is reported as 140- to 1500 fold.
`CC(C)(C)OC(=O)N[C@H]1CCCCC/C=C\[C@@H]2C[C@@]2(C(=O)NS(=O)(=O)C2CC2)NC(=O)[C@@H]2C[C@@H](OC(=O)N3Cc4cccc(F)c4C3)CN2C1=O` [DAN, danoprevir]: on GT-3 HCV NS3/4A protease [1], the “Ki in GT-3 (in words)” value is on record as “low to submicromolar”. Also, the “fold change (FC) in Ki, GT-3 relative to GT-1” value with GT-3 HCV NS3/4A protease [2] came to 878 fold. Further, in experiment [3], the “fold change (loss) in potency, D168Q relative to GT-1 WT” value is given as 30 fold. For the same compound, in experiment [4], the “loss … (1a3a) relative to GT-1 WT” value is listed as 2–3 orders of magnitude. The Ki on GT-1 HCV NS3/4A protease is 1 nM. Further, the “loss … compared to GT-1” value in experiment [5] was 140- to 1500 fold.
As for `C=C[C@@H]1C[C@]1(NC(=O)[C@@H]1C[C@@H](Oc2ncc(OC)c3ccc(Cl)cc23)CN1C(=O)[C@@H](NC(=O)OC(C)(C)C)C(C)(C)C)C(=O)NS(=O)(=O)C1CC1` [ASV, asunaprevir], the “Ki in GT-3 (in words)” value at GT-3 HCV NS3/4A protease [1] is given as “low to submicromolar”. Also, the “fold change (FC) in Ki, GT-3 relative to GT-1” value with GT-3 HCV NS3/4A protease [2] is on record as 975 fold. Also, in experiment [3], the “fold change (loss) in potency, D168Q relative to GT-1 WT” value amounted to 72 fold. For the same compound, in experiment [4], the “loss … (1a3a) relative to GT-1 WT” value was 2–3 orders of magnitude. Also, the Ki on GT-1 HCV NS3/4A protease was 2.7 nM.
`COc1ccc2nc3c(nc2c1)O[C@@H]1C[C@H]2C(=O)N[C@]4(C(=O)NS(=O)(=O)C5(C)CC5)C[C@H]4/C=C/CCCCC[C@H](NC(=O)O[C@@H]4CCC[C@H]4CCCCC3)C(=O)N2C1` [MK-6325]: the Ki on GT-3 HCV NS3/4A protease [1] (read-out: Ki against GT-3 NS3/4A protease, GT-3a) was 31 nM; at GT-1 HCV NS3/4A protease it was 0.1 nM. The “loss in affinity in GT-3 relative to GT-1” value in the experiment on GT-3 HCV NS3/4A protease [2] is on record as 2–3 orders of magnitude. Also, in experiment [6], the “inhibition constant against D168Q (in words)” value was “subnanomolar”. The “fold change (loss) in potency, D168Q relative to GT-1 WT” value in experiment [3] is 4 fold. Further, the “loss … (1a3a) relative to GT-1 WT” value in experiment [4] is listed as 2–3 orders of magnitude.
On to `CC[C@@H]1C[C@]1(NC(=O)[C@@H]1C[C@@H]2CN1C(=O)[C@H](C(C)(C)C)NC(=O)OCC(C)(C)CCCCc1cccc3c1CN(C3)C(=O)O2)C(=O)NS(=O)(=O)C1CC1` [VAN, vaniprevir], for which the “Ki in GT-3 (in words)” value at GT-3 HCV NS3/4A protease [1] is “low to submicromolar”. Moreover, the “fold change (FC) in Ki, GT-3 relative to GT-1” value in the experiment on GT-3 HCV NS3/4A protease [2] worked out at 533 fold. Also, in experiment [3], the “fold change (loss) in potency, D168Q relative to GT-1 WT” value was 44 fold. In addition, in experiment [4], the “loss … (1a3a) relative to GT-1 WT” value is 2–3 orders of magnitude. The Ki on GT-1 HCV NS3/4A protease is 0.7 nM.
Consider `COc1ccc2c(O[C@@H]3C[C@H]4C(=O)N[C@]5(C(=O)NS(=O)(=O)C6CC6)C[C@H]5/C=C\CCCCN(C)C(=O)[C@@H]4C3)cc(-c3nc(C(C)C)cs3)nc2c1C` [simeprevir], for which the “loss … compared to GT-1” value in experiment [5] is 140- to 1500 fold.
For the compound `CC[C@@H]1C[C@]1(NC(=O)[C@@H]1C[C@@H](Oc2cc(-c3csc(NC(C)C)n3)nc3c(Cl)c(OCCN4CCOCC4)ccc23)CN1C(=O)[C@@H](NC(=O)O[C@@H]1C[C@@H]2C[C@@H]2C1)C(C)(C)C)C(=O)O` [GS-9451], the “loss … compared to GT-1” value in experiment [5] was 140- to 1500 fold.
